The subject of series [1] is Mus musculus. As to the kind of experiment: Neurotoxicity in Mus musculus Swiss albino (mouse) assessed as motor impairment at 100 mg/kg, ip measured for 1 min by rotarod test. Type of series: toxicity, organism-based. Further details: dose 100 mg/kg, route intraperitoneal. As to conditions: in vivo. In general terms: The rotarod test checks motor coordination on a turning rod.

Series [2] concerns Mus musculus. As to the kind of experiment: Anticonvulsant activity in Mus musculus Swiss albino (mouse) assessed as protection against maximal electroshock-induced seizures at 300 mg/kg, ip measured after 4 hr post compound treatment. Type of series: functional, organism-based. Further details: dose 300 mg/kg.
Series [3] relates to Mus musculus. As to the kind of experiment: Anticonvulsant activity in Mus musculus Swiss albino (mouse) assessed as protection against subcutaneous pentylenetetrazol-induced clonic spasms at 300 mg/kg, ip after 0.5 hr post compound treatment. Type of series: functional, organism-based. Further details: dose 300 mg/kg.
Series [4] has as its system Mus musculus. As to the kind of experiment: Anticonvulsant activity in Mus musculus Swiss albino (mouse) assessed as protection against subcutaneous pentylenetetrazol-induced clonic spasms at 300 mg/kg, ip after 4 hr post compound treatment. Type of series: functional, organism-based. On the set-up: dose 300 mg/kg.
Series [5] has as its system Mus musculus. As to the kind of experiment: Anticonvulsant activity in Mus musculus Swiss albino (mouse) assessed as protection against maximal electroshock-induced seizures at 300 mg/kg, ip measured after 0.5 hr post compound treatment. Type of series: functional, organism-based. On the set-up: dose 300 mg/kg. On the technique in general: In the maximal electroshock model the usual endpoint is tonic extension of the hind limbs.

Series [6] has as its system Mus musculus. As to the kind of experiment: Neurotoxicity in Mus musculus Swiss albino (mouse) assessed as motor impairment at 600 mg/kg, ip measured for 1 min by rotarod test. As to conditions: in vivo. Type of series: toxicity, organism-based. On the set-up: dose 600 mg/kg, route intraperitoneal.
For series [7], the system named is Mus musculus. As to the kind of experiment: Anticonvulsant activity in Mus musculus Swiss albino (mouse) assessed as protection against subcutaneous pentylenetetrazol-induced clonic spasms at 30 mg/kg, ip after 0.5 hr post compound treatment. Type of series: functional, organism-based. Further details: dose 30 mg/kg.
Series [8] has as its system Mus musculus. As to the kind of experiment: Anticonvulsant activity in Mus musculus Swiss albino (mouse) assessed as protection against subcutaneous pentylenetetrazol-induced clonic spasms at 30 mg/kg, ip after 4 hr post compound treatment. Type of series: functional, organism-based. Further details: dose 30 mg/kg.
Series [9] deals with Mus musculus. As to the kind of experiment: Anticonvulsant activity in Mus musculus Swiss albino (mouse) assessed as protection against maximal electroshock-induced seizures at 30 mg/kg, ip measured after 0.5 hr post compound treatment. Type of series: functional, organism-based. Further details: dose 30 mg/kg.
In series [10] the test system is Mus musculus. As to the kind of experiment: Anticonvulsant activity in Mus musculus Swiss albino (mouse) assessed as protection against maximal electroshock-induced seizures at 30 mg/kg, ip measured after 4 hr post compound treatment. Type of series: functional, organism-based. On the set-up: dose 30 mg/kg.
The nature of series [11]: Neurotoxicity in ip dosed Mus musculus Swiss albino (mouse) assessed as motor impairment measured after 0.5 hr post compound treatment for 1 min by rotarod test. Type of series: toxicity, organism-based. As to conditions: in vivo.
In series [12] the test system is Mus musculus. As to the kind of experiment: Anticonvulsant activity in ip dosed Mus musculus Swiss albino (mouse) assessed as protection against maximal electroshock-induced seizures measured after 0.5 hr post compound treatment. Type of series: functional.
Series [13] in a line: Protective index, ratio of TD50 for neurotoxicity in Mus musculus Swiss albino (mouse) to ED50 for anticonvulsant activity in Mus musculus Swiss albino (mouse) measured 0.5 hr post compound treatment. Type of series: toxicity, organism-based. As to conditions: in vivo, read-out: Ratio TD50/ED50.
Series [14] can be described thus: Protective index, ratio of TD50 for neurotoxicity in Mus musculus Swiss albino (mouse) to ED50 for anticonvulsant activity in Mus musculus Swiss albino (mouse). Conditions: in vivo, read-out: Ratio TD50/ED50. Type of series: toxicity, organism-based.
Series [15] relates to Mus musculus. As to the kind of experiment: Anticonvulsant activity in ip dosed Mus musculus Swiss albino (mouse) assessed as protection against maximal electroshock-induced seizures measured. Type of series: functional.

Each structure is given as a SMILES string. Activity calls are given as the source filed them. The rule behind the calls is not given here.

As usually defined, the TD50 is the 50% point of the dose-response relation for the toxic effect studied. The ED50 is the dose at which the effect has come halfway, by size or by number of responders.

For the compound `CC(C)(C)NC(=O)NCc1ccccc1-c1cccnc1`, the results for the Activity entry in the series on Mus musculus [1] and in the series on Mus musculus [6] were “Non-toxic” and “Toxic”, respectively. Further, the result in the series on Mus musculus [2], in the series on Mus musculus [3], in the series on Mus musculus [4] and in the series on Mus musculus [5] was inactive.
With `NC(=S)NNC(=O)Cc1ccccc1-c1cccnc1`, the Activity entry in the series with Mus musculus [1] is recorded as “Non-toxic”; in the series on Mus musculus [6], “Toxic”. Moreover, the result with Mus musculus [2], in the series with Mus musculus [3], in the series with Mus musculus [4] and in the series with Mus musculus [5] was inactive.
For the compound `CN1C(=O)CN=C(c2ccccc2)c2cc(Cl)ccc21` [DIAZEPAM], the Activity result in the series with Mus musculus [1] was “Non-toxic”; in the series on Mus musculus [6], “Toxic”. Moreover, the result in the series with Mus musculus [7] and with Mus musculus [8] was Active.
`NC(=O)NNC(=O)Cc1ccccc1-c1cccnc1`: the Activity entry in the series with Mus musculus [1] is “Non-toxic”; in the series with Mus musculus [6], “Toxic”. Further, the result in the series on Mus musculus [2], in the series on Mus musculus [3], with Mus musculus [4] and in the series with Mus musculus [5] was inactive.
In the case of `O=C1NC(=O)C(c2ccccc2)(c2ccccc2)N1` [PHENYTOIN], the Activity result was “Non-toxic” in the series with Mus musculus [1] and “Toxic” with Mus musculus [6]. Also, the outcome in the series on Mus musculus [9] and with Mus musculus [10] was Active.
Consider `O=C(NCc1ccccc1-c1cccnc1)NC1CCCCC1`, for which the figures for the Activity entry in the series with Mus musculus [1] and with Mus musculus [6] were “Non-toxic” and “Toxic”, respectively. For the same compound, the result in the series with Mus musculus [2], in the series on Mus musculus [3], in the series on Mus musculus [4] and in the series with Mus musculus [5] was inactive.
On to `NC(=O)N1c2ccccc2C=Cc2ccccc21` [CARBAMAZEPINE], for which the Activity entry with Mus musculus [1] is listed as “Non-toxic”; with Mus musculus [6], “Toxic”. For the same compound, the result in the series on Mus musculus [9] and in the series on Mus musculus [10] was Active.
In the case of `NC(=O)Cc1ccccc1-c1cccnc1`, the Activity result with Mus musculus [1] is recorded as “Non-toxic”; in the series on Mus musculus [6], “Toxic”. The outcome in the series on Mus musculus [9] and in the series on Mus musculus [10] was Active. In addition, the TD50 at 0.5 hr in [11] was determined as 215 mg/kg. For the same compound, the ED50 with Mus musculus [12] came to 8.28 mg/kg. In [13], the selectivity ratio at 0.5 h was determined as 26.
Consider `CCC1(c2ccccc2)C(=O)NC(=O)NC1=O` [PHENOBARBITAL], for which the Activity result is given as “Non-toxic” with Mus musculus [1] and “Toxic” in the series with Mus musculus [6]. The outcome in the series with Mus musculus [7] and in the series with Mus musculus [8] was Active.
`O=C1CCCN1C(=O)Cc1ccccc1Nc1ccccc1`: the Activity entry is listed as “Non-toxic” with Mus musculus [1] and “Toxic” in the series with Mus musculus [6]. For the same compound, the selectivity ratio in [14] came out at 87.5. Also, in the series with Mus musculus [15], the 50% effective dose (ED50) was found to be 8 mg/kg.
